Read-outs that look alike come from different tables or passages of the source.
Legend:
[1] = system: 143B cells; assay: MTT cytotoxicity assay, 72 h; format: cell-based, human; conditions: p53 mt, read-out: IC50 (mean ± SE) after 72 h continuous exposure
Experimental: (§1) Cells in a subconfluent phase are transferred to 96-well microtitre plates. L1210 cells are plated at a density of 1000 cells/well in 100 μl medium, while all other cell lines are plated at a density of 2000-25000 cells/well. The cells are left for 24 h prior to treatment to ensure exponential growth has been achieved, 24 h after plating (day 0), 100 μl of phosphatase inhibitor is added to each well, control wells received 100 μl of medium only. Drug exposure time is 72 h (day 3). The effect of phosphatase inhibition is tested in triplicate over a concentration range of […]−1×10^−8 M. Growth inhibitory effects are evaluated using the MTT assay and absorbance read at […]. The IC50 is the drug concentration at which cell growth is 50% inhibited based on the difference of optical density on day 0 and day 3 of drug exposure. Cytotoxicity is evaluated using a spectrophotometric assay which determines the percentage of cell growth following exposure of the cells to various concentrations of the phosphatase inhibitors for a period of 72 hours. The subsequent dose response curve is used to calculate IC50 values (the drug concentration at which cell growth is 50% inhibited).
(§2) Anti-cancer screening of the protein phosphatase inhibitors is assessed using the MTT assay. This assay determines cell viability by the ability of mitochondrial dehydrogenase to produce formazan crystals from 3-(4,5-dimethylthiazol-2-yl)-2,5-diphenyltetrazolium bromide. The viable cell number/well is directly proportional to the production of formazan, which following solubilization, can be measured spectrophotometrically (540 nm). This technique is also used by the National Cancer Institute to screen for new anticancer agents.
(§3) As described herein a number of cantharidin analogues have been synthesised and tested for their anticancer activity in nine cancer cell lines using the MTT assay after 72 h exposure. These new analogues are shown in FIG. 2 and have been designated MK-1 through to MK-9.

[2] = system: SW480 cells; assay: MTT cytotoxicity assay, 72 h; format: cell-based, human; conditions: SW480, p53 mt; read-out: IC50 (mean ± SE) after 72 h continuous exposure
Experimental: as §1, §2, §3

[3] = system: HCT116 cells; assay: MTT cytotoxicity assay, 72 h; format: cell-based, human; conditions: HCT116, p53 wt; read-out: IC50 (mean ± SE) after 72 h continuous exposure
Experimental: as §1, §2, §3

[4] = system: WiDr cells; assay: MTT cytotoxicity assay, 72 h; format: cell-based, human; conditions: p53 mt, read-out: IC50 (mean ± SE) after 72 h continuous exposure
Experimental: as §1, §2, §3

[5] = system: HL60 cells; assay: MTT cytotoxicity assay, 72 h; format: cell-based, human; conditions: HL60, p53 nul; read-out: IC50 (mean ± SE) after 72 h continuous exposure
Experimental: as §1, §2, §3

[6] = system: ADDP cells; assay: MTT cytotoxicity assay, 72 h; format: cell-based, human; conditions: p53 mt, read-out: IC50 (mean ± SE) after 72 h continuous exposure
Experimental: as §1, §2, §3

[7] = system: HT29 cells; assay: MTT cytotoxicity assay, 72 h; format: cell-based, human; conditions: HT29, p53 mt; read-out: IC50 (mean ± SE) after 72 h continuous exposure
Experimental: as §1, §2, §3

[8] = system: nine cancer cell lines; assay: MTT cytotoxicity assay, 72 h, ranges over cell line panel; format: cell-based
Experimental: as §1, §2, §3

[9] = system: HCT116 cells; assay: Cell cycle analysis, flow cytometry of propidium iodide stained cells; format: cell-based, human; conditions: for Cell Cycle Distribution, G1 / Cell Cycle Distribution, G2 + M / Cell Cycle Distribution, S / Cell Cycle Distribution, sub G1 / Cell cycle remark: 12 h; for Cell cycle response: HCT116, 12 h exposure
Experimental: (§4) The cells are fixed in 70% ethanol and stored at −20° C. until analysis is performed (1-2 weeks). After fixing, the cells are pelleted and incubated in PBS containing propidium iodide ([…]) and RNase A (200 mg/ml) for at least 30 min at room temperature. The samples (2×10^4 events) are analysed using a Becton Dickson FACScan, fluorescence is collected in fluorescence detector 2 (FL2), filter 575/30 nm band pass. Cell cycle distribution is assessed using Cell Quest software (Becton Dickson).
(§5) The ability of the protein phosphatase inhibitors to abrogate the G1 or G2 checkpoint of the cell cycle may be determined by cell cycle analysis using flow cytometry. Briefly, asynchronous cell cultures are harvested 18 h after 6 Gy irradiation and/or 12 h incubation with the protein phosphatase inhibitor. Depending upon the p53 status of the cell line, radiation treatment alone will induce arrest in either G1 and/or G2 phase of the cell cycle.
(§6) Data shown in Table 2 and FIG. 4 show the cell cycle response of L1210, HL60, HT29 and HCT116 cells to cantharidin and the new cantharidin analogues MK-2 and MK-4 after 12 h exposure. In summary, cantharidin and MK-2 produced a similar response and induced G2 arrest in all four cell lines tested. […] HL60 and HCT116 cells. […] The magnitude of the cell cycle arrest induced by these drugs directly correlated with their cytotoxicity in the respective cell lines. […] The cytotoxicity of the […]

[10] = system: HL60 cells; assay: as above; format: cell-based, human; conditions: for Cell Cycle Distribution, G1 / Cell Cycle Distribution, G2 + M / Cell Cycle Distribution, S / Cell Cycle Distribution, sub G1 / Cell cycle remark: 12 h; for Cell cycle response: HL60, 12 h exposure
Experimental: as §4, §5, §6

[11] = system: HT29 cells; assay: as above; format: cell-based, human; conditions: 12 h
Experimental: as §4, §5, §6

## O=C1OC(=O)C2C3C=CC(O3)C12 (stereo not drawn) [MK-2]
[1]
  IC50: 248 ± 29 µM
[2]
  IC50: 155 ± 9 µM
[3]
  IC50: 160 ± 10 µM
[4]
  IC50: 198 ± 53 µM
[5]
  IC50: 177 ± 3 µM
[6]
  IC50: 183 ± 17 µM
[7]
  IC50: 183 ± 20 µM
[8]; nine cell lines, read-out: IC50 range across all cell lines tested
  IC50: 157 to 248 µM
[9]; HCT116, 50 μM
  Cell Cycle Distribution, G1: 47.2 percentage of total
  Cell Cycle Distribution, G2 + M: 37.4 percentage of total
  Cell Cycle Distribution, S: 13.8 percentage of total
  Cell Cycle Distribution, sub G1: 1.3 percentage of total
[9]; HCT116, 100 μM
  Cell Cycle Distribution, G1: 47.2 percentage of total
  Cell Cycle Distribution, G2 + M: 34.5 percentage of total
  Cell Cycle Distribution, S: 16.0 percentage of total
  Cell Cycle Distribution, sub G1: 1.7 percentage of total
[9]; HCT116, 250 μM
  Cell Cycle Distribution, G1: 52.8 percentage of total
  Cell Cycle Distribution, G2 + M: 34.3 percentage of total
  Cell Cycle Distribution, S: 11.1 percentage of total
  Cell Cycle Distribution, sub G1: 1.4 percentage of total
[9]; HCT116, 500 μM
  Cell Cycle Distribution, G1: 39.4 percentage of total
  Cell Cycle Distribution, G2 + M: 46.5 percentage of total
  Cell Cycle Distribution, S: 11.3 percentage of total
  Cell Cycle Distribution, sub G1: 2.5 percentage of total
  Cell cycle remark: G2 arrest
[9]
  Cell cycle response: G2 arrest
[10]; HL60, 50 μM
  Cell Cycle Distribution, G1: 44.1 percentage of total
  Cell Cycle Distribution, G2 + M: 31.4 percentage of total
  Cell Cycle Distribution, S: 23.8 percentage of total
  Cell Cycle Distribution, sub G1: 1.8 percentage of total
[10]; HL60, 100 μM
  Cell Cycle Distribution, G1: 43.3 percentage of total
  Cell Cycle Distribution, G2 + M: 32.4 percentage of total
  Cell Cycle Distribution, S: 23.6 percentage of total
  Cell Cycle Distribution, sub G1: 1.8 percentage of total
[10]; HL60, 250 μM
  Cell Cycle Distribution, G1: 37.7 percentage of total
  Cell Cycle Distribution, G2 + M: 36.4 percentage of total
  Cell Cycle Distribution, S: 23.8 percentage of total
  Cell Cycle Distribution, sub G1: 3.2 percentage of total
  Cell cycle remark: G2 arrest
[10]; HL60, 500 μM
  Cell Cycle Distribution, G1: 17.8 percentage of total
  Cell Cycle Distribution, G2 + M: 43.1 percentage of total
  Cell Cycle Distribution, S: 21.6 percentage of total
  Cell Cycle Distribution, sub G1: 18.8 percentage of total
  Cell cycle remark: Cell death
[10]
  Cell cycle response: G2 arrest
[11]; HT29, 50 μM
  Cell Cycle Distribution, G1: 45.3 percentage of total
  Cell Cycle Distribution, G2 + M: 37.1 percentage of total
  Cell Cycle Distribution, S: 7.6 percentage of total
  Cell Cycle Distribution, sub G1: 9.4 percentage of total
[11]; HT29, 100 μM
  Cell Cycle Distribution, G1: 49.8 percentage of total
  Cell Cycle Distribution, G2 + M: 37.6 percentage of total
  Cell Cycle Distribution, S: 8.2 percentage of total
  Cell Cycle Distribution, sub G1: 3.6 percentage of total
[11]; HT29, 250 μM
  Cell Cycle Distribution, G1: 41.4 percentage of total
  Cell Cycle Distribution, G2 + M: 42.5 percentage of total
  Cell Cycle Distribution, S: 11.2 percentage of total
  Cell Cycle Distribution, sub G1: 4.2 percentage of total
  Cell cycle remark: G2 arrest
[11]; HT29, 500 μM
  Cell Cycle Distribution, G1: 44.5 percentage of total
  Cell Cycle Distribution, G2 + M: 33.6 percentage of total
  Cell Cycle Distribution, S: 15.4 percentage of total
  Cell Cycle Distribution, sub G1: 5.2 percentage of total
  Cell cycle remark: S-phase↑

## O=C1OC(O)C2C3CCC(O3)C12 (stereo not drawn) [MK-4]
[1]
  IC50: 450 µM
[2]
  IC50: 88 ± 5 µM
[3]
  IC50: 78 ± 7 µM
[4]
  IC50: 15 ± 3 µM
[5]
  IC50: 393 ± 103 µM
[6]
  IC50: 275 ± 56 µM
[7]
  IC50: 14 µM
[8]; colon lines, read-out: IC50 range in human colon cancer cell lines
  IC50: 14 to 88 µM
[8]; leukaemia lines, read-out: IC50 range in leukaemia cells
  IC50: 393 to 680 µM
[8]; ovarian lines, read-out: IC50 range in ovarian cells
  IC50: 275 to 333 µM
[9]; HCT116, 50 μM
  Cell Cycle Distribution, G1: 43.9 percentage of total
  Cell Cycle Distribution, G2 + M: 40.7 percentage of total
  Cell Cycle Distribution, S: 11.4 percentage of total
  Cell Cycle Distribution, sub G1: 4.5 percentage of total
[9]; HCT116, 100 μM
  Cell Cycle Distribution, G1: 41.4 percentage of total
  Cell Cycle Distribution, G2 + M: 44.1 percentage of total
  Cell Cycle Distribution, S: 13.6 percentage of total
  Cell Cycle Distribution, sub G1: 2.0 percentage of total
[9]; HCT116, 250 μM
  Cell Cycle Distribution, G1: 36.2 percentage of total
  Cell Cycle Distribution, G2 + M: 46.9 percentage of total
  Cell Cycle Distribution, S: 14.1 percentage of total
  Cell Cycle Distribution, sub G1: 3.9 percentage of total
[9]; HCT116, 500 μM
  Cell Cycle Distribution, G1: 29.0 percentage of total
  Cell Cycle Distribution, G2 + M: 46.5 percentage of total
  Cell Cycle Distribution, S: 15.7 percentage of total
  Cell Cycle Distribution, sub G1: 9.6 percentage of total
  Cell cycle remark: G2 arrest
[9]
  Cell cycle response: G2 arrest
[10]; HL60, 50 μM
  Cell Cycle Distribution, G1: 44.7 percentage of total
  Cell Cycle Distribution, G2 + M: 32.3 percentage of total
  Cell Cycle Distribution, S: 22.3 percentage of total
  Cell Cycle Distribution, sub G1: 1.9 percentage of total
[10]; HL60, 100 μM
  Cell Cycle Distribution, G1: 45.3 percentage of total
  Cell Cycle Distribution, G2 + M: 30.6 percentage of total
  Cell Cycle Distribution, S: 22.6 percentage of total
  Cell Cycle Distribution, sub G1: 2.5 percentage of total
[10]; HL60, 250 μM
  Cell Cycle Distribution, G1: 40.0 percentage of total
  Cell Cycle Distribution, G2 + M: 32.0 percentage of total
  Cell Cycle Distribution, S: 23.0 percentage of total
  Cell Cycle Distribution, sub G1: 6.0 percentage of total
[10]; HL60, 500 μM
  Cell Cycle Distribution, G1: 27.8 percentage of total
  Cell Cycle Distribution, G2 + M: 44.4 percentage of total
  Cell Cycle Distribution, S: 22.8 percentage of total
  Cell Cycle Distribution, sub G1: 6.1 percentage of total
  Cell cycle remark: G2 arrest
[10]
  Cell cycle response: G2 arrest
[11]; HT29, 50 μM
  Cell Cycle Distribution, G1: 51.4 percentage of total
  Cell Cycle Distribution, G2 + M: 31.6 percentage of total
  Cell Cycle Distribution, S: 12.3 percentage of total
  Cell Cycle Distribution, sub G1: 4.7 percentage of total
[11]; HT29, 100 μM
  Cell Cycle Distribution, G1: 52.3 percentage of total
  Cell Cycle Distribution, G2 + M: 29.4 percentage of total
  Cell Cycle Distribution, S: 12.5 percentage of total
  Cell Cycle Distribution, sub G1: 6.0 percentage of total
[11]; HT29, 250 μM
  Cell Cycle Distribution, G1: 53.2 percentage of total
  Cell Cycle Distribution, G2 + M: 27.6 percentage of total
  Cell Cycle Distribution, S: 11.9 percentage of total
  Cell Cycle Distribution, sub G1: 7.0 percentage of total
[11]; HT29, 500 μM
  Cell Cycle Distribution, G1: 53.7 percentage of total
  Cell Cycle Distribution, G2 + M: 29.1 percentage of total
  Cell Cycle Distribution, S: 14.1 percentage of total
  Cell Cycle Distribution, sub G1: 3.4 percentage of total
  Cell cycle remark: G1 arrest

Reference: US20060030616A1, “Anhydride modified cantharidin analogues useful in the treatment of cancer” (priority 1998, published 2006)
